Measurements from patent US8987424B2, “CA6 antigen-specific cytotoxic conjugate and methods of using the same” (ImmunoGen, Inc., priority 2003, dated 2015).
Numbering of substitutions follows the chain as printed. “Also recorded” adds a separate entry of the source.

Key:
[1] = mice, single intravenous dose of 12.5 μg/kg; cited from earlier work
HeLa cells [2] = assay: Clonogenic assay; format: cell-based, human
Protocol: (§1) The cytotoxicity of maytansinoid conjugated muDS6 antibody was examined using 2 different assay formats in various DS6 positive cell lines. Clonogenic assays were conducted where cells (1000-2500 cells/well) were plated on 6-well plates in 2 ml of conjugate diluted in culture media. […] The wells were washed with PBS and the colonies were stained with a 1% w/v crystal violet/10% v/v formaldehyde/PBS solution. Unbound stain was then washed thoroughly from the wells with distilled water, and the plates were allowed to dry. The colonies were counted using a Leica StereoZoom 4 dissecting microscope.
(§2) Plating efficiency (PE) was calculated as the number of colonies/number of cells plated. Surviving fraction was calculated as PE of treated cells/PE of non-treated cells. The IC50 concentration was determined by graphing the surviving fraction of cells vs. the molar concentration of the conjugate.

OVCAR5 cells = assay: Clonogenic assay; format: cell-based, human
Protocol: as §1, §2

Hs766T cells = assay: Clonogenic assay; format: cell-based; details: Homo sapiens, 72 h exposure to free maytansine
Protocol: as §1, §2

HPAF-II cells = assay: Clonogenic assay; format: cell-based; details: Homo sapiens, 72 h exposure to free maytansine
Protocol: as §1, §2

TOV-21G cells = assay: Clonogenic assay; format: cell-based; details: Homo sapiens, TOV21G, 72 h exposure to free maytansine
Protocol: as §1, §2

BT-20 cells = assay: Clonogenic assay; format: cell-based; details: Homo sapiens, 72 h exposure to free maytansine
Protocol: as §1, §2

KB cells [3] = assay: Clonogenic assay; format: cell-based; details: Homo sapiens, 72 h exposure to free maytansine
Protocol: as §1, §2

HPAC cells = assay: Clonogenic assay; format: cell-based; details: Homo sapiens, 72 h exposure to free maytansine
Protocol: as §1, §2

ZR-75-1 cells = assay: Clonogenic assay; format: cell-based; details: Homo sapiens, 72 h exposure to free maytansine
Protocol: as §1, §2

T-47D cells = assay: Clonogenic assay; format: cell-based; details: Homo sapiens, T47D, 72 h exposure to free maytansine
Protocol: as §1, §2

WISH cells [4] = assay: Clonogenic assay; format: cell-based; details: Homo sapiens, 72 h exposure to free maytansine
Protocol: as §1, §2

Caov-3 cells = assay: Clonogenic assay; format: cell-based; details: Homo sapiens, 72 h exposure to free maytansine
Protocol: as §1, §2

BT-483 cells = assay: Clonogenic assay; format: cell-based; details: Homo sapiens, 72 h exposure to free maytansine
Protocol: as §1, §2

Caov-4 cells = assay: Clonogenic assay; format: cell-based; details: Homo sapiens, 72 h exposure to free maytansine
Protocol: as §1, §2

[5] = clinical trial patients; cited from earlier work
HeLa cells [6] = assay: Flow cytometry binding assay; parameters: species or system human; details: HeLa cells, versus muDS6 antibody
Protocol: (§3) Cells were maintained in a 37° C., 5% CO2 humidified incubator.
(§4) Cells ([…]) were incubated, on ice for 3-4 h, with serially diluted concentrations of the DS6 antibody prepared in FACS buffer (2% goat serum, RPMI) into 96-well plates. The cells were spun down in a table top centrifuge at 1500 rpm for 5 min at 4° C. After removing the media, the wells were then refilled with 150 μl of FACS buffer. The wash step was then repeated. FITC-labeled goat anti-mouse IgG (Jackson Immunoresearch) was diluted 1:100 to FACS buffer and incubated with the cells for 1 h on ice. The plate was covered in foil to prevent photobleaching of the signal. After two washes, the cells were fixed with 1% formaldehyde and analyzed on a flow cytometer.

WISH cells [7] = assay: MTT cell viability assay; format: cell-based, human
Protocol: In the MTT assay, cells were seeded in 96-well plates at a density of 1000-5000 cells/well. The cells were plated with serial dilutions of either naked muDS6 or muDS6-DM1 immunoconjugate in 200 μl of culture media. The samples were run in triplicate. The cells and antibody/conjugate mixtures were then incubated for 2-7 d, at which time cell viability was assessed by an MTT ([3(4,5-dimethylthiazol-2-yl)-2,5-diphenyl tetrazolium bromide)] assay. MTT (50 μg/well) was added to the culture supernatant and allowed to incubate for 3-4 h at 37° C. The media was removed and the MTT formazan was solubilized in DMSO (175 μl/well). The absorbance at 540-545 nm was measured. […] The wells with the highest concentrations of conjugate contained no viable cells as compared to naked antibody which had no effect (FIGS. 21 and 24).
(§5) The binding was conducted essentially as described for FIG. 20 except that KB cells were used rather than CaOv-3 cells.

HPAC xenografts = assay: HPAC pancreatic cancer model with humanized DS6 conjugate; format: in vivo, mice
Protocol: The in vivo activity of huDS6v1.01-DM4 was tested on the HPAC pancreatic model. HPAC cells were inoculated on day 0, and immunoconjugate treatments were given on day 13. PBS control animals were euthanized once tumor volumes exceeded 1000 mm^3. The conjugate was given at a dose of either 200 μg/kg or 600 μg/kg DM4, corresponding to an antibody concentration 15 mg/kg and 45 mg/kg, respectively. Tumor volume (FIG. 30A) and body weight (FIG. 30B) of the mice were monitored during the course of the study.

KB cells [8] = assay: Flow cytometry binding assay; parameters: species or system human; details: KB cells, versus unmodified antibody
Protocol: as §3, §4
The affinity of the purified huIgG was compared with muDS6 by flow cytometry. In the first set of experiments direct binding to a CA6-expressing cell line, KB, was measured. […] To confirm that the huDS6 versions retain the affinity of muDS6, competitive binding experiments were conducted. The advantage of this format is that the same detection system is used for both murine and human antibodies; that is biotin-muDS6/streptavidin-DTAF.
as §5

Molecule: COc1c(O)c2c(c3cc(C(=O)N4CCc5c4c(O)c(OC)c4[nH]c(C(=O)N6CC7CC78C6=CC(=O)c6[nH]cc(C)c68)cc54)[nH]c13)CCN2C(N)=O (centres unmarked) [CC-1065]
- day of mortality from delayed hepatotoxicity [1]: 50 days

Molecule: COc1cc2cc(c1Cl)N(C)C(=O)C[C@H](OC(=O)[C@H](C)N(C)C(C)=O)[C@]1(C)O[C@H]1[C@H](C)[C@@H]1C[C@@](O)(NC(=O)O1)[C@H](OC)/C=C/C=C(\C)C2 [Maytansine, maytansine]
- fold less maytansine sensitive (HeLa cells [2]; HeLa versus TOV-21G and HPAC): 2-7 fold
- IC50 (HeLa cells [2]; Homo sapiens, HeLa, 72 h exposure to free maytansine): 0.1 nM
- IC50 (OVCAR5 cells; Homo sapiens, OVCAR-5, OVCAR5, 72 h exposure to free maytansine): 0.32 nM
- fold less maytansine sensitive (OVCAR5 cells; OVCAR5 versus TOV-21G and HPAC): 2-7 fold
- IC50 (Hs766T cells): > 3 nM
- IC50 (HPAF-II cells): 0.6 nM
- IC50 (TOV-21G cells): 0.048 nM
- IC50 (BT-20 cells): 0.35 nM
- IC50 (KB cells [3]): 0.03 nM
- IC50 (HPAC cells): 0.055 nM
- IC50 (ZR-75-1 cells): 0.1 nM
- IC50 (T-47D cells): 0.12 nM
- IC50 (WISH cells [4]): 0.09 nM
- IC50 (Caov-3 cells): 0.032 nM
- IC50 (BT-483 cells): 0.15 nM
- IC50 (Caov-4 cells): 0.6 nM

B1: cantuzumab mertansine: huC242-DM1 antibody-maytansinoid conjugate tested in a clinical trial (conjugate, chains of the INN, looked up)
VH: QVQLVQSGAEVKKPGETVKISCKASDYTFTYYGMNWVKQAPGQGLKWMGWIDTTTGEPTYAQKFQGRIAFSLETSASTAYLQIKSLKSEDTATYFCARRGPYNWYFDVWGQGTTVTVSS
VL: DIVMTQSPLSVPVTPGEPVSISCRSSKSLLHSNGNTYLYWFLQRPGQSPQLLIYRMSNLVSGVPDRFSGSGSGTAFTLRISRVEAEDVGVYYCLQHLEYPFTFGPGTKLELK
modifications: DM1 maytansinoid conjugate
notes: huC242-DM1 antibody-maytansinoid conjugate tested in a clinical trial
- correlation of pretreatment shed CanAg levels with pharmacokinetics of antibody clearance [5]: no correlation

B2: DS6-MM1-202 (conjugate)
VH: QAYLQQSGAELVRSGASVKMSCKASGYTFTSYNMHWVKQTPGQGLEWIGYIYPGNGATNYNQKFKGKATLTADPSSSTAYMQISSLTSEDSAVYFCARGDSVPFAYWGQGTLVTVSA
VL: QIVLTQSPAIMSASPGEKVTITCSAHSSVSFMHWFQQKPGTSPKLWIYSTSSLASGVPARFGGSGSGTSYSLTISRMEAEDAATYYCQQRSSFPLTFGAGTKLELKR
- effect of conjugation on binding activity (HeLa cells [6]): retains binding activity

B3: huDS6v1.01: humanized (resurfaced) DS6 version 1.01, heavy chain with the human 28E4 T73 (antibody, V domains shown)
VH: B2 VH with Y3Q, Q5V, L11V, R13K, S14P, K65Q, P74T
VL: B2 VL with Q1E, I10T, K18R, R76S
- cytotoxic activity of unconjugated antibody (WISH cells [7]): no cytotoxic activity

B4: huDS6v1.01-DM4 (conjugate)
VH: B2 VH with Y3Q, Q5V, L11V, R13K, S14P, K65Q, P74T
VL: B2 VL with Q1E, I10T, K18R, R76S
- toxicity / body weight (HPAC xenografts; 200 μg/kg DM4): lack of body weight loss; also recorded: not toxic
- anti-tumor activity (HPAC xenografts; 200 μg/kg DM4, treatment on day 13): all mice achieving complete tumor regression; also recorded: potent anti-tumor activity
- effect of conjugation on affinity/avidity (KB cells [8]): essentially no loss of affinity; also recorded: little effect on the avidity
